# Results reported in patent US6534496B1, “Thermogenic composition and benzazepine thermogenics” (Takeda Chemical Industries, Inc., priority 1997, dated 2003).
# Structures can show the parent of a compound that is named as a salt.
row,SMILES,melting point
1,O=C(CCC1CCN(Cc2cc(C(F)(F)F)cc(C(F)(F)F)c2)CC1)c1ccc2c(c1)CN(Cc1ccccc1)CCO2 (as salt: hydrochloride),234 to 236 °C
2,CNC(=O)Nc1ccccc1CN1CCC(CCCC(=O)c2ccc3c(c2)CCN(Cc2ccccc2C)CC3)CC1 (as salt: hydrochloride),176 to 189 °C (dec.)
3,Cc1ccccc1CN1CCC(CCC(=O)c2ccc3c(c2)CN(Cc2ccccc2)CCO3)CC1 (as salt: hydrochloride),232 to 234 °C
4,"Cc1cccc(CN2CCC(CCC(=O)c3ccc4c(c3)CN(Cc3ccccc3)CCO4)CC2)c1 (as salt: hydrochloride) [Example 4, 3-[1-[(3-Methylphenyl)methyl]-4-piperidinyl]-1-[4-(phenylmethyl)-2,3,4,5-tetrahydro-1,4-benzoxazepin-7-yl]-1-propanone Dihydrochloride]",212 to 214 °C
5,"O=C(CCC1CCN(Cc2ccc(F)cc2)CC1)c1ccc2c(c1)CN(Cc1ccccc1)CCO2 (as salt: hydrochloride) [Example 8, 3-[1-[(4-Fluorophenyl)methyl]-4-piperidinyl]-1-[4-(phenylmethyl)-2,3,4 5-tetrahydro-1,4-benzoxazepin-7-yl]-1-propanone Dihydrochloride]",212 to 214 °C
6,"O=C(CCC1CCN(Cc2ccccc2C(F)(F)F)CC1)c1ccc2c(c1)CN(Cc1ccccc1)CCO2 (as salt: hydrochloride) [Example 12, 1-[4-(Phenylmethyl)-2,3,4,5-tetrahydro-1,4-benzoxazepin-7-yl]-3-[1-[(2-trifluoromethylphenyl)methyl]-4-piperidinyl]-1-propanone Dihydrochloride]",223 to 225 °C
7,"O=C(CCCC1CCNCC1)c1ccc2c(c1)CCN(Cc1ccccc1)CC2 (as salt: hydrochloride) [Example 26, 1-[3-(Phenylmethyl)-2,3,4,5-tetrahydro-1H-3-benzazepin-7-yl]-4-(4-piperidinyl)-1-butanone Dihydrochloride]",201 to 203 °C
8,"O=C(CCC1CCN(Cc2ccc(Cl)cc2)CC1)c1ccc2c(c1)CCN(Cc1ccc(F)cc1)CC2 (as salt: hydrochloride) [Example 41, 3-[1-[(4-Chlorophenyl)methyl]-4-piperidinyl]-1-[3-[(4-fluorophenyl)methyl]-2,3,4,5-tetrahydro-1H-3-benzazepin-7-yl]-1-propanone Dihydrochloride]",219 to 222 °C (dec.)
9,"CN1CCC(CCC(=O)c2ccc3c(c2)CCN(Cc2ccc(F)cc2)CC3)CC1 (as salt: hydrochloride) [Example 42, 1-[3-[(4-Fluorophenyl)methyl]-2,3,4,5-tetrahydro-1H-3-benzazepin-7-yl]-3-(1-methyl-4-piperidinyl)-1-propanone Dihydrochloride]",213 to 216 °C (dec.)
10,"CCOC(=O)C(C)(C)c1ccc(CN2CCC(CCC(=O)c3ccc4c(c3)CCN(Cc3ccc(F)cc3)CC4)CC2)cc1 (as salt: hydrochloride) [Example 43, Ethyl 2-methyl-2-[4-[[4-[3-[3-[(4-fluorophenyl)methyl]-2,3,4,5-tetrahydro-1H-3-benzazepin-7-yl]-3-oxopropyl]-1-piperidinyl]methyl]phenyl]propionate Dihydrochloride]",228 to 231 °C (dec.)
11,"CCOC(=O)COc1ccc(CN2CCC(CCC(=O)c3ccc4c(c3)CCN(Cc3ccc(F)cc3)CC4)CC2)cc1 (as salt: hydrochloride) [Example 45, Ethyl 2-[4-[[4-[3-[3-[(4-fluorophenyl)methyl]-2,3,4,5-tetrahydro-1H-3-benzazepin-7-yl]-3-oxopropyl]-1-piperidinyl]methyl]phenoxy]ethanoate Dihydrochloride]",206 to 208 °C
12,"O=C(CCC1CCN(Cc2ccc(-c3ccccc3)cc2)CC1)c1ccc2c(c1)CCN(Cc1ccc(F)cc1)CC2 (as salt: hydrochloride) [Example 49, 1-[3-[(4-Fluorophenyl)methyl]-2,3,4,5-tetrahydro-1H-3-benzazepin-7-yl]-3-[1-[(4-phenylphenyl)methyl]-4-piperidinyl]-1-propanone Dihydrochloride]",225 to 228 °C (dec.)
13,"O=C(CCC1CCNCC1)c1ccc2c(c1)CN(Cc1ccc(F)cc1)CCO2 (as salt: hydrochloride) [Example 78, 1-[4-[(4-Fluorophenyl)methyl]-2,3,4,5-tetrahydro-1,4-benzoxazepin-7-yl]-3-(4-piperidinyl)-1-propanone Dihydrochloride]",173 to 174 °C
14,"Cc1cccc(CN2CCC(CCC(=O)c3ccc4c(c3)CN(Cc3ccc(F)cc3)CCO4)CC2)c1 (as salt: hydrochloride) [Example 79, 1-[4-[(4-Fluorophenyl)methyl]-2,3,4,5-tetrahydro-1,4-benzoxazepin-7-yl]-3-[1-[(3-methylphenyl)methyl]-4-piperidinyl]-1-propanone Dihydrochloride]",223 to 225 °C
15,"O=C(CCC1CCN(Cc2cccc(Cl)c2)CC1)c1ccc2c(c1)CN(Cc1ccc(F)cc1)CCO2 (as salt: hydrochloride) [Example 80, 3-[1-[(3-Chlorophenyl)methyl]-4-piperidiny]-1-[4-[(4-fluorophenyl)methyl]-2,3,4,5-tetrahydro-1,4-benzoxazepin-7-yl]-1-propanone Dihydrochloride]",224 to 225 °C
16,"O=C(CCC1CCN(Cc2cccc(F)c2)CC1)c1ccc2c(c1)CN(Cc1ccc(F)cc1)CCO2 (as salt: hydrochloride) [Example 81, 3-[1-[(3-Fluorophenyl)methyl]-4-piperidiny]-1-[4-[(4-fluorophenyl)methyl]-2,3,4,5-tetrahydro-1,4-benzoxazepin-7-yl]-1-propanone Dihydrochloride]",228 to 231 °C
17,"Cc1ccccc1CN1CCC(CCC(=O)c2ccc3c(c2)CN(Cc2ccc(F)cc2)CCO3)CC1 (as salt: hydrochloride) [Example 83, 1-[4-[(4-Fluorophenyl)methyl]-2,3,4,5-tetrahydro-1,4-benzoxazepin-7-yl]-3-[1-[(2-methylphenyl)methy]-4-piperidinyl]-1-propanone Dihydrochloride]",216 to 219 °C
18,"O=C(CCC1CCN(Cc2ccc(C(F)(F)F)cc2)CC1)c1ccc2c(c1)CN(Cc1ccc(F)cc1)CCO2 (as salt: hydrochloride) [Example 88, 1-[4-[(4-Fluorophenyl)methyl]-2,3,4,5-tetrahydro-1,4-benzoxazepin-7-yl]-3-[1-[[4-(trifluoromethyl)phenyl]methyl]-4-piperidinyl]-1-propanone Dihydrochloride]",234 to 237 °C
19,"COc1ccc(CN2CCc3ccc(C(=O)CCC4CCN(Cc5ccc(C(C)(C)C)cc5)CC4)cc3CC2)cc1 (as salt: hydrochloride) [Example 93, 1-[3-[(4-methbyphenyl)methyl]-2,3,4,5-tetrahydro-1H-3-benzazepin-7-yl]3-[1-[[4-(tert-butyl)phenyl]methyl]-4-piperidinyl]-1-propanone Dihydrochloride]",241 to 244 °C (dec.)
20,"COc1ccc(CN2CCc3ccc(C(=O)CCC4CCN(Cc5ccc(Cl)c(Cl)c5)CC4)cc3CC2)cc1 (as salt: hydrochloride) [Example 96, 3-[1-[(3,4-Dichlorophenyl)methyl]-4-piperidinyl]-1-[3-[(4-methoxyphenyl)methyl]-2,3,34,5-tetrahydro-1H-3-benzazepin-7-yl]-1-propanone Dihydrochloride]",220 to 223 °C (dec.)
